{
  "source": "patent US6683054B1",
  "about": "“Use of melagatran” (AstraZeneca AB, priority 1999, dated 2004)",
  "tested_on": "paw oedema",
  "assay": "Carrageenan-induced paw oedema in rats (foot volume by water plethysmograph)",
  "type": "in vivo, rat",
  "details": "for % Inhibition after sub-plantar injection, 2 hours after / % Inhibition after sub-plantar injection, 4 hours after: Table 1; for % Inhibition after sub-plantar injection, 2 hours after: 2 hours after carrageenan; for % Inhibition after sub-plantar injection, 4 hours after: 4 hours after carrageenan",
  "excerpt": "Groups of five male Charles River CD rats in the weight range 180 to 240 g were used. On their arrival, rats were housed in controlled environment rooms and fed a standard diet for at least one week before use.\nRats were starved overnight before the test, although water was given ad libitum. A mark was made on the ankle joint of each rat, the day before the test, to indicate where the foot volume was to be measured.\nCompounds were made up in the appropriate vehicle for dosing via either the subcutaneous (s.c.), intravenous (i.v.) or oral (p.o.) routes. Melagatran was dosed in water (20 μmol/kg) when given p.o., and in saline, and in cyclodextrin (40%), when given s.c. (0.7 to 2 μmol/kg). Drugs were administered in a dose volume of 5 mL/kg body weight for p.o. dosing or 1 to 2 mL/kg body weight for s.c. dosing. Control rats received the equivalent volume of vehicle.\nA 1% solution of carrageenan in saline was prepared the day prior to the test. The carrageenan was suspended in saline and stirred vigorously on a magnetic stirrer for one hour. It was then stored at 4° C. until required. Thirty minutes after dosing, each rat was injected s.c. in the plantar region of the left hind foot with 0.1 mL of 1% carrageenan.\nTo reduce both discomfort to the rat and variability in the test, rats were housed on wood chip bedding in solid bottom cages. The rats had access to a solution of 5% glucose throughout the duration of the test.\nThe plethysmograph was calibrated using blocks of 2 mL and 4 mL mass before the first, and after the last, measurement at each time point.\nFoot volumes were measured before dosing and up to 6 hours after the sub-plantar injection of carrageenan. The increase in foot volume for each rat was calculated using the difference between the individual foot volume at time zero, and at the various time points. The inhibition afforded by a treatment was expressed as a percentage inhibition of the mean absolute increase in foot volume in treated animals compared to control animals. Indomethacin at 10 mg/kg p.o. was always included as an internal standard. If indomethacin gave less than 30% inhibition at 4 h then the test was considered invalid.",
  "key": {"[1]": {"details": "Table 2, 2 μmol/kg s.c. in cyclodextrin"}, "[2]": {"details": "Table 2, 20 μmol/kg p.o. in water"}, "[3]": {"details": "Table 3, 2 μmol/kg s.c. in saline"}, "[4]": {"details": "Table 4, 0.7 μmol/kg s.c. in saline"}, "[5]": {"details": "Table 4, 1.4 μmol/kg s.c. in saline"}, "[6]": {"details": "Table 4, 2.0 μmol/kg s.c. in saline"}},
  "data": [
    {"smiles": "C[C@@H]1C[C@H]2[C@@H]3CCC4=CC(=O)C=C[C@]4(C)[C@@]3(F)[C@@H](O)C[C@]2(C)[C@@]1(O)C(=O)CO", "note": "[Dexamethasone, reference compound]", "values": [
      {"measurement": "% Inhibition after sub-plantar injection, 2 hours after", "setting": "0.03 mg/kg p.o.", "result": 47, "unit": "%"},
      {"measurement": "% Inhibition after sub-plantar injection, 4 hours after", "setting": "0.03 mg/kg p.o.", "result": 74, "unit": "%"},
      {"measurement": "% Inhibition after sub-plantar injection, 2 hours after", "setting": "0.3 mg/kg p.o.", "result": 51, "unit": "%"},
      {"measurement": "% Inhibition after sub-plantar injection, 4 hours after", "setting": "0.3 mg/kg p.o.", "result": 96, "unit": "%"}
    ]},
    {"smiles": "CC(C)Cc1ccc(C(C)C(=O)O)cc1", "note": "(stereo not shown) [Ibuprofen, reference compound]", "values": [
      {"measurement": "% Inhibition after sub-plantar injection, 2 hours after", "setting": "10 mg/kg p.o.", "result": 22, "unit": "%"},
      {"measurement": "% Inhibition after sub-plantar injection, 4 hours after", "setting": "10 mg/kg p.o.", "result": 26, "unit": "%"}
    ]},
    {"smiles": "COc1ccc2c(c1)c(CC(=O)O)c(C)n2C(=O)c1ccc(Cl)cc1", "note": "[Indomethacin, reference compound]", "values": [
      {"measurement": "% Inhibition after sub-plantar injection, 2 hours after", "setting": "10 mg/kg p.o.", "result": 43, "unit": "%"},
      {"measurement": "% Inhibition after sub-plantar injection, 4 hours after", "setting": "10 mg/kg p.o.", "result": 50, "unit": "%"},
      {"measurement": "% Inhibition after 1 hour", "setting": "Table 2, 10 mg/kg p.o.", "result": "−5", "unit": "%"},
      {"measurement": "% Inhibition after 2 hours", "setting": "Table 2, 10 mg/kg p.o.", "result": 50, "unit": "%"},
      {"measurement": "% Inhibition after 3 hours", "setting": "Table 2, 10 mg/kg p.o.", "result": 39, "unit": "%"},
      {"measurement": "% Inhibition after 4 hours", "setting": "Table 2, 10 mg/kg p.o.", "result": 12, "unit": "%"},
      {"measurement": "% Inhibition after 1 hour", "setting": "Table 3, 10 mg/kg p.o.", "result": 15, "unit": "%"},
      {"measurement": "% Inhibition after 2 hours", "setting": "Table 3, 10 mg/kg p.o.", "result": 2, "unit": "%"},
      {"measurement": "% Inhibition after 3 hours", "setting": "Table 3, 10 mg/kg p.o.", "result": 29, "unit": "%"},
      {"measurement": "% Inhibition after 4 hours", "setting": "Table 3, 10 mg/kg p.o.", "result": 18, "unit": "%"}
    ]},
    {"smiles": "N=C(N)c1ccc(CNC(=O)[C@@H]2CCN2C(=O)[C@H](NCC(=O)O)C2CCCCC2)cc1", "note": "[Melagatran, HOOC—CH2—(R)Cgl-Aze-Pab-H]", "values": [
      {"measurement": "% Inhibition after 1 hour", "setting": "[1]", "result": 29, "unit": "%"},
      {"measurement": "% Inhibition after 2 hours", "setting": "[1]", "result": 13, "unit": "%"},
      {"measurement": "% Inhibition after 3 hours", "setting": "[1]", "result": 3, "unit": "%"},
      {"measurement": "% Inhibition after 4 hours", "setting": "[1]", "result": 13, "unit": "%"},
      {"measurement": "% Inhibition after 1 hour", "setting": "[2]", "result": 14, "unit": "%"},
      {"measurement": "% Inhibition after 2 hours", "setting": "[2]", "result": 17, "unit": "%"},
      {"measurement": "% Inhibition after 3 hours", "setting": "[2]", "result": "−14", "unit": "%"},
      {"measurement": "% Inhibition after 4 hours", "setting": "[2]", "result": "−2", "unit": "%"},
      {"measurement": "% Inhibition after 1 hour", "setting": "[3]", "result": 39, "unit": "%"},
      {"measurement": "% Inhibition after 2 hours", "setting": "[3]", "result": 8, "unit": "%"},
      {"measurement": "% Inhibition after 3 hours", "setting": "[3]", "result": 2, "unit": "%"},
      {"measurement": "% Inhibition after 4 hours", "setting": "[3]", "result": "−8", "unit": "%"},
      {"measurement": "% Inhibition after 1 hour", "setting": "[4]", "result": 39, "unit": "%"},
      {"measurement": "% Inhibition after 1.5 hours", "setting": "[4]", "result": "−1", "unit": "%"},
      {"measurement": "% Inhibition after 2 hours", "setting": "[4]", "result": 9, "unit": "%"},
      {"measurement": "% Inhibition after 3 hours", "setting": "[4]", "result": 16, "unit": "%"},
      {"measurement": "% Inhibition after 1 hour", "setting": "[5]", "result": 65, "unit": "%"},
      {"measurement": "% Inhibition after 1.5 hours", "setting": "[5]", "result": 40, "unit": "%"},
      {"measurement": "% Inhibition after 2 hours", "setting": "[5]", "result": 5, "unit": "%"},
      {"measurement": "% Inhibition after 3 hours", "setting": "[5]", "result": 7, "unit": "%"},
      {"measurement": "% Inhibition after 1 hour", "setting": "[6]", "result": 76, "unit": "%"},
      {"measurement": "% Inhibition after 1.5 hours", "setting": "[6]", "result": 41, "unit": "%"},
      {"measurement": "% Inhibition after 2 hours", "setting": "[6]", "result": 17, "unit": "%"},
      {"measurement": "% Inhibition after 3 hours", "setting": "[6]", "result": 19, "unit": "%"},
      {"measurement": "inhibition of the oedema", "setting": "in saline, 2 μmol/kg s.c., after 1 h", "result": 39, "unit": "%"},
      {"measurement": "inhibition of paw oedema, dose and time dependence (in words)", "setting": "in saline, 0.7, 1.4 and 2 μmol/kg s.c., 1 to 3 hours", "result": "inhibited paw oedema in both a dose dependent, and time dependent, manner"},
      {"measurement": "inhibiting paw oedema (in words)", "setting": "orally 20 μmol/kg in water, 30 minutes prior to carrageenan, up to 6 h post dosing", "result": "ineffective"}
    ]}
  ]
}
